“Also recorded” adds a separate entry of the source.
What follows are sequences tested on WT TMEM55B region 80-166 (assay: In vitro pulldown of untagged TMEM55B with His-tagged bait peptides). Details: 10 μM bait, 10 μM prey, Ni2+-agarose, 20 mM Tris pH 8.0, 300 mM NaCl, 20 mM imidazole, 15 minutes; SDS-PAGE, Coomassie; qualitative.
Type: binding
Source text: (§1) Figure 5: In vitro pulldowns of TMEM55B with TBM peptides. (A) Domain organization of TMEM55B interactors depicting the sequence context of the TBM. Regions that are α-helical have been drawn as cylinders; α/βfolds are shown as rectangles; and unstructured segments are zigzag lines. (B) Cartoon depiction of the in vitro pulldown strategy using His-tagged peptides. […] As a control, the R151E variant of TMEM55B was used, which abolishes the interactions with RILPL1 (bottom panel). […] Protein/peptide concentrations were 10μM (see Methods) and visualization was enabled by Coomassie Brilliant Blue G250.
(§2) Given that the TBMs reside in flexible regions of the adaptor proteins (Figure 5A), peptides should be able to mimic their interactions with TMEM55B. Peptides corresponding to the potential TBMs were synthesized with an N-terminal hexahistidine tag to enable in vitro pulldowns of TMEM55B (80-166; Figure 5B). Slightly extended peptides beyond the minimal TBMs were generated to preclude any structural or conformational restrictions on the interaction with TMEM55B. The peptide TBM from RILPL1 was used as a positive control, and the mutant R151E™ of TMEM55B provided a negative control. Peptides run on conventional SDS-PAGE gels are generally not visible in this assay.
In vitro pulldowns were conducted using hexahistidine tagged peptides of interacting proteins as bait, as described in dx.doi.org/10.17504/protocols.io.dm6gpqk91lzp/v2. If not stated otherwise 10μM of bait peptide or the hexahistidine tagged PH domain of OCRL was mixed with 10μM of prey TMEM55B80-166 or TMEM55B80-160 in 1.5 mL centrifuge tubes with 25 μl Ni^2+-agarose resin in a final volume of 1ml of binding buffer (20 mM Tris pH 8.0, 300 mM NaCl, 20mM Imidazole, 10 mM β-mercapotoethanol). The reaction mixture was subjected to gentle shaking for 15 minutes. The resin was collected by gentle centrifugation (1,000 rpm) and washed 3 times with 1 ml of the binding buffer. Following release of proteins from the resin with 50μl elution buffer (20 mM Tris-Cl pH 8.0, 300 mM NaCl, 200mM imidazole), samples were subjected to SDS-PAGE and stained with Coomassie Brilliant Blue[26].

| Sequence | pulldown of untagged WT TMEM55B (80-166) by His-tagged bait |
| --- | --- |
| HHHHHHGSTAEEATEATEG [JIP4, His-tagged JIP4 887-897 TBM peptide used as pulldown bait] | interact with TMEM55B |
| HHHHHHGSDDLEQATEALDS [WDR81, His-tagged WDR81 657-668 TBM peptide used as pulldown bait] | interact with TMEM55B |
| HHHHHHGSGYTEQGQEALQHL [His-tagged RILPL1 peptide, RILPL1 391-403 TBM peptide with N-terminal hexahistidine tag; direct pulldown, ITC] | clear band |
| HHHHHHSQSTEEATEATEVPD [JIP3, His-tagged JIP3 889-903 TBM peptide used as pulldown bait] | interact with TMEM55B |
| HHHHHHGSVQEAEETLLID [OCRL, His-tagged peptide corresponding to the TBM of OCRL, residues 65-75] | failed to pulldown TMEM55B; also recorded: did not significantly interact |

Each sequence was assayed on R151E variant of TMEM55B (assay: In vitro pulldown of TMEM55B R151E variant with His-tagged bait peptides (negative control)). Details: 10 μM bait, 10 μM prey, Ni2+-agarose, 20 mM Tris pH 8.0, 300 mM NaCl, 20 mM imidazole, SDS-PAGE, Coomassie, qualitative.
Type: binding
Source text: as §1
as §2, with “assay. […]” for “assay.”

| Sequence | pulldown of R151E variant of TMEM55B by His-tagged bait |
| --- | --- |
| HHHHHHGSGYTEQGQEALQHL [His-tagged RILPL1 peptide, RILPL1 391-403 TBM peptide with N-terminal hexahistidine tag; direct pulldown, ITC] | abolished |

— paper doi:10.1101/2025.08.19.670962, “Structural basis for binding of RILPL1 to TMEM55B reveals a lysosomal platform for adaptor assembly through a conserved TBM motif” (bioRxiv, 2025)
